This is an account of results in patent publication US20040152710A1, “Use of norepinephrine reuptake modulators for preventing and treating vasomotor symptoms” (priority 2002, published 2004).

In general, EC50 refers to the concentration at which the effect is half-maximal. The term ED50 denotes the midpoint of the dose-response relation.

The target in one experiment is T1, human hNET (Homo sapiens, UniProt P23975).
T1 construct: expressed in transfected cells
Briefly: Norepinephrine (NE) uptake assay in MDCK-Net6 cells. Format: cell-based. The conditions noted are these: for hNET % Specific NE uptake: at 1 μM. The protocol: (§1) Cells were plated at 300,000/T75 flask and cells were split twice weekly. […] Cells were plated at 250,000 cells/T75 flask and split twice weekly.
On day 1, cells were plated at 3,000 cells/well in growth medium and maintained in a cell incubator (37° C., 5% CO2). On day 2, growth medium was replaced with 200 μl of assay buffer (25 mM HEPES; 120 mM NaCl; 5 mM KCl; 2.5 mM CaCl2; 1.2 mM MgSO4; 2 mg/ml glucose (pH 7.4, 37° C.)) containing 0.2 mg/ml ascorbic acid and 10 μM pargyline. Plates containing cells with 200 μl of assay buffer were equilibrated for 10 minutes at 37° C. prior to addition of compounds. […] Data from these wells were used to define non-specific NE uptake (minimum NE uptake). Test compounds were prepared in DMSO (10 mM) and diluted in assay buffer according to test range (1 to 10,000 nM). Twenty-five microliters of assay buffer (maximum NE uptake) or test compound were added directly to triplicate wells containing cells in 200 μl of assay buffer. The cells in assay buffer with test compounds were incubated for 20 minutes at 37° C. […] The reaction was terminated by decanting the supernatant from the plate. The plates containing cells were washed twice with 200 μl assay buffer (37° C.) to remove free radioligand. The plates were then inverted, left to dry for 2 minutes, then reinverted and air dried for an additional 10 minutes. The cells were lysed in 25 μl of 0.25 N NaOH solution (4° C.), placed on a shake table and vigorously shaken for 5 minutes. After cell lysis, 75 μl of scintillation cocktail was added to each well and the plates were sealed with film tape. The plates were returned to the shake table and vigorously shaken for a minimum of 10 minutes to ensure adequate partitioning of organic and aqueous solutions. The plates were counted in a Wallac Microbeta counter (PerkinElmer) to collect the raw cpm data.
(§2) For each experiment, a data stream of cpm values collected from the Wallac Microbeta counter was downloaded to a Microsoft Excel statistical application program. Determination of percent specific NE uptake (% SB) at 1 μM are calculated using a Microsoft Excel spread sheet applying the following formula: [% SB of NE reuptake (% SB)=[(1−(mean cpm control wells−each cpm drug well)/(mean cpm control wells−mean cpm non-specific wells))×100]. Calculations of EC50 values were made using the transformed-both-sides logistic dose response program written by Wyeth Biometrics Department.

The target of the next experiment is T2, hSERT (Homo sapiens, UniProt P31645).
T2 construct: cells were stimulated with staurosporine (40 nM) to increase the expression of the 5-HT transporter; host or cells: JAR (human placental choriocarcinoma)
Description: Serotonin (5-HT) uptake assay in JAR cells. Format: cell-based. The conditions noted are these: for hSERT % specific 5-HT uptake: at 1 μM. On the procedure:
as §1
The methods for 5-HT functional reuptake using the JAR cell line were modified using a previous literature report. […] On day 2, cells were stimulated with staurosporine (40 nM) to increase the expression of the 5-HT transporter. On day 3, cells were removed from the cell incubator two hours prior to assay and maintained at room temperature to equilibrate the growth medium to ambient oxygen concentration. Subsequently, the growth medium was replaced with 200 μl of assay buffer (25 mM HEPES; 120 mM NaCl; 5 mM KCl; 2.5 mM CaCl2; 1.2 mM MgSO4; 2 mg/ml glucose (pH 7.4, 37° C.)) containing 0.2 mg/ml ascorbic acid and 10 μM pargyline. […] Data from these wells were used to define non-specific 5-HT uptake (minimum 5-HT uptake). Test compounds were prepared in DMSO (10 mM) and diluted in assay buffer according to test range (1 to 1,000 nM). Twenty-five microliters of assay buffer (maximum 5-HT uptake) or test compound were added directly to triplicate wells containing cells in 200 μl of assay buffer. The cells were incubated with the compound for 10 minutes (37° C.). […] The cells were incubated with the reaction mixture for 5 minutes at 37° C. The 5-HT uptake reaction was terminated by decanting the assay buffer. The cells were washed twice with 200 μl assay buffer (37° C.) to remove free radioligand. The plates were inverted and left to dry for 2 minutes, then reinverted and air-dried for an additional 10 minutes. Subsequently, the cells were lysed in 25 μl of 0.25 N NaOH (4° C.) then placed on a shaker table and shaken vigorously for 5 minutes. After cell lysis, 75 μl of scintillation cocktail was added to the wells, the plates were sealed with film tape and replaced on the shake table for a minimum of 10 minutes. The plates were counted in a Wallac Microbeta counter (PerkinElmer) to collect the raw cpm data.
as §2

The test system of experiment [1] is naloxone-induced flush in morphine-dependent ovariectomized rats. Briefly: Morphine-dependent rat model of hot flush (naloxone-induced flush, MD model). The conditions noted are these: for ED50 value, abatement of naloxone-induced flush: maximal flush 15 minutes post-naloxone; for effect on naloxone-induced flush at maximal flush: 30 mg/kg intraperitoneally; for ED50: Rattus norvegicus, read-out: ED50 value, abatement of naloxone-induced flush; for changes in TST over time, effect on naloxone-induced flush: various doses.
Description: (§3) Dosing: All doses were prepared based on mg/kg.
(§4) Animals: Ovariectomized Sprague-Dawley rats (180-220 g) were obtained from a commercial vendor (Taconic, Germantown, N.Y.) and individually housed under 12 hours light/dark cycle in a room maintained at 25° C. Animals were provided with standard rat chow and water ad libitum.
Morphine-dependent model: Ovariectomized rats were injected once daily for 8-9 days with vehicle to minimize stress responses and then administered compound(s) on test day. On day 4 of dosing, morphine dependence was induced by sc implantation of two slow-release morphine pellets (75 mg/pellet) in the dorsal scapular region. […] Four to six days after implantation, morphine withdrawal was induced with an opioid antagonist (naloxone) that causes a transient increase in TST. […] Rats were mildly sedated with ketamine and a thermistor connected to a MacLab data acquisition system was taped to the base of the tail. Tail skin temperature was then monitored continuously for 35 minutes to establish a baseline temperature. Naloxone was subsequently administered and TST was measured for an additional 35 to 60 minutes (total recording time 70 to 95 minutes).
Statistical analysis: To analyze changes in TST induced by naloxone in morphine-dependent rats, all data were analyzed using a two factor repeated measure ANOVA for “treatment” and “time.” The model was fit to test whether there were significant differences in the responses between treatment groups. Naloxone administration is designated as time zero and data is then analyzed at 5 minute intervals. The first three readings were averaged and used as baseline TST scores. All data were analyzed as ΔTST (TST for each time point-baseline). Multiple comparisons (LSD p-values) among the treatment groups at each time point were used for the analysis. Efficacy of hot flush abatement was determined by evaluating statistical differences at the peak response time of 15 minutes post-nalbxone, when the maximal change in TST is observed. A customized SAS-excel (SAS Institute, Cary, N.C.) application was used applying a four parameter logistic model to determine ED50 values. A logistic dose transformation was performed on ΔTST. Maximum flush (ΔTST at 15 minutes post-naloxone) was used in the analysis and the minimum was locked at zero. […] Statisticians in the Biometrics Department (Wyeth Research, Collegeville, Pa.) developed a customized JMP application.

Experiment [2] relates to tail skin temperature of ovariectomized rats. Briefly: OVX-induced thermoregulatory dysfunction telemetry model.
Description: as §3, §4
A temperature and physical activity transmitter (PhysioTel TA10TA-F40, Data Sciences International) was implanted subcutaneously in the dorsal scapular region and the tip of the temperature probe was tunneled subcutaneously 2.5 cm beyond the base of the tail. After a 7-day recovery period, TST readings were continuously recorded for the remainder of the study. Tail skin temperature readings were collected from each animal every 5 minutes with values obtained over a 10 second sampling period. The day before test day, an average baseline TST value was calculated for each animal by averaging temperature readings recorded during the 12 hours active (dark) phase. In these studies, animals were dosed approximately 1 hour prior to the onset of dark cycle.
Evaluation of a compound's ability to restore normal lowering of TST in the telemetry model was analyzed using hourly TST values calculated for each animal by averaging the 12 temperature readings obtained every 5 minutes over that recording time. To analyze ΔTST in the telemetry model, a two factors repeated measure ANOVA was performed. The model used for analysis was ΔTST=GRP (group)+HR (hours)+GRP*HR+BASELINE. Thus, the reported least squares means are the expected mean values as if both groups had the same baseline value. Post-hoc tests of hourly GRP*HR samples are t-tests of the difference between groups for each hour. To be conservative, a result was not considered significant unless the p-value was <0.025. All analyses were performed using SAS PROC MIXED (SAS, Carey, N.C.).
[3] abbreviates: [3H]5-HT uptake, JAR cells, read-out: hSERT EC50.

Where two headings read alike, the source gives them in different places.

T2 sequence (P31645 whole entry): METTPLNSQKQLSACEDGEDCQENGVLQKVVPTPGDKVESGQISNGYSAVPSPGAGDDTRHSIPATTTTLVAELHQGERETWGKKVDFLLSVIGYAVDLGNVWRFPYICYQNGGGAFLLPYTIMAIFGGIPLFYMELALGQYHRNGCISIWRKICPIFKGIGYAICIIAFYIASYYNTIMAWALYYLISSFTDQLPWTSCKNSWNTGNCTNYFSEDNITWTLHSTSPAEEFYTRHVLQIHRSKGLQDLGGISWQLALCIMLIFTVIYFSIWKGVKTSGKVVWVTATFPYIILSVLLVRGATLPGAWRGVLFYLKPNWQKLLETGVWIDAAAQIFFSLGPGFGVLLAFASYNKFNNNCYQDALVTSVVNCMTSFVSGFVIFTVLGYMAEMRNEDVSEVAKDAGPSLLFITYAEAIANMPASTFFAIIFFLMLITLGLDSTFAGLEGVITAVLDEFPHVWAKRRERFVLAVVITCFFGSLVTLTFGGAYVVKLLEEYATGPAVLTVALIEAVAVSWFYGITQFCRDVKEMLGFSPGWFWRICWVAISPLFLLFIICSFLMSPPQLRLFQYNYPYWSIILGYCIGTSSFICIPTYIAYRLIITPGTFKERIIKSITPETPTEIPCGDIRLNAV
T1 sequence (P23975 whole entry): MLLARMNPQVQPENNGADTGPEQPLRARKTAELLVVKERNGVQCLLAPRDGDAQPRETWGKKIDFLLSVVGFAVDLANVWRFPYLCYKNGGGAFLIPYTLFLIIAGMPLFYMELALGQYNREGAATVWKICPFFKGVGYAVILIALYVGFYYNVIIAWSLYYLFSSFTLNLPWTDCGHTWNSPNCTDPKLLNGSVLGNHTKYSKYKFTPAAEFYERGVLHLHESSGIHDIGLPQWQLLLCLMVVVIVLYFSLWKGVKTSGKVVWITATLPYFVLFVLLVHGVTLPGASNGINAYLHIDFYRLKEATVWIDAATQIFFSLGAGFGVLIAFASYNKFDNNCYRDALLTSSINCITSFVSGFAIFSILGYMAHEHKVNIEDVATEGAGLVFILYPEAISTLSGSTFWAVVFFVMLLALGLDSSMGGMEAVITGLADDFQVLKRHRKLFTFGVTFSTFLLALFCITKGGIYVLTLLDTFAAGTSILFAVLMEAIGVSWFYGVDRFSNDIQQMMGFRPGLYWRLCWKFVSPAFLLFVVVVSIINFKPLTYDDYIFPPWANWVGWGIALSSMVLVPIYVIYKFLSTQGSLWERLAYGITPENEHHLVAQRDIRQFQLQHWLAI

As for `OC1(C(CN2CCN(Cc3ccccc3)CC2)c2ccc(F)cc2)CCCCC1` (centres unmarked) [1-[1-(4-fluorophenyl)-2-[4-(phenylmethyl)-1-piperazinyl]ethyl]cyclohexanol], the “hNET % Specific NE uptake” value on human hNET came to 53%. Besides, on hSERT, the “hSERT % specific 5-HT uptake” value is 88%.

As to `COc1ccc([C@H](CN(C)C)C2(O)CCCCC2)cc1` (single isomer, unassigned) [R-venlafaxine, R-enantiomer of venlafaxine], the “ED50 value, abatement of naloxone-induced flush” value (shortened to “ED50 value, abatement”) in experiment [1] (sc, 1 hour prior to naloxone) is on record as 8.3+3 mg/kg.

As for `CN(C)CC(c1cccc(Cl)c1)C1(O)CCCCC1` (centres unmarked) [WY-781], the “effect on naloxone-induced flush at maximal flush” value in experiment [1] (1 hour prior to naloxone) is recorded as “abated the naloxone-induced flush”.

In the case of `CN1CCN(CC(c2cccc(C(F)(F)F)c2)C2(O)CCCCC2)CC1` (centres unmarked) [1-[2-(4-methyl-1-piperazinyl)-1-[3-(trifluoromethyl)-phenyl]ethyl]cyclohexanol], the EC50 at human hNET was found to be 87 nM; at hSERT (setting [3]), 33600 nM.

Regarding `COc1cccc(C(CN2CCN(c3cccc(C(F)(F)F)c3)CC2)C2(O)CCCCC2)c1` (centres unmarked) [1-[1-(3-methoxyphenyl)-2-[4-[3-(trifluoromethyl)-phenyl]-1-piperazinyl]ethyl]cyclohexanol], the “hNET % Specific NE uptake” value on human hNET is recorded as 38%. Besides, on hSERT, the “hSERT % specific 5-HT uptake” value is given as 87%.

`COc1cccc(C(CN2CCN(c3cncc(Cl)n3)CC2)C2(O)CCCCC2)c1` (centres unmarked) [1-[2-[4-(6-chloro-2-pyrazinyl)-1-piperazinyl]-1-[3-methoxyphenyl)ethyl]cyclohexanol]: on human hNET, the “hNET % Specific NE uptake” value was determined as 59%. Moreover, at hSERT, the “hSERT % specific 5-HT uptake” value is given as 58%.

`COc1ccc(C(CN(C)C)C2(O)CCCCC2)cc1` (centres unmarked) [venlafaxine]: the median effective dose (ED50) in experiment [1] (sc) was 15 mg/kg. In experiment [1] (adrenergic α2 receptor antagonist atipamezole given), the “effect on elevated naloxone-dependent hot flush induced by atipamezole” value is recorded as “able to alleviate”. Moreover, the “changes in TST over time” value in experiment [2] (15 mg/kg sc) is “significantly and transiently decreased TST during the active phase”.

Take `COc1cccc(C(CN2CCN(c3cccc(C(F)(F)F)c3)CC2)C2(O)CCCC2)c1` (centres unmarked) [1-[1-(3-methoxyphenyl)-2-[4-[3-(trifluoromethyl)-phenyl]-1-piperazinyl]ethyl]cyclopentanol]: the “hNET % Specific NE uptake” value on human hNET came out at 57%. Besides, the “hSERT % specific 5-HT uptake” value on hSERT is 82%.

As to `CNCCC(Oc1ccc(C(F)(F)F)cc1)c1ccccc1` (centres unmarked) [fluoxetine], in experiment [1] (fluoxetine 10 mg/kg sc), the “effect on naloxone-induced flush, alone” value is recorded as “did not abate the naloxone-induced flush”.

On to `COc1ccc([C@@H](CN(C)C)C2(O)CCCCC2)cc1` (single isomer, unassigned) [S-venlafaxine, S-enantiomer of venlafaxine], for which, in experiment [1] (sc, 1 hour prior to naloxone), the “ED50 value, abatement” value is 10.9+3 mg/kg.

For the compound `CN1CCN(CC(c2cccc(Cl)c2)C2(O)CCCCC2)CC1` (racemic) [1-[1-(3-chlorophenyl)-2-(4-methyl-1-piperazinyl)ethyl]cyclohexanol], the EC50 on human hNET was 55 nM; on hSERT (setting [3]), 15500 nM. Also, the “changes in TST over time, effect on naloxone-induced flush” value in experiment [1] (sc) is recorded as “dose-dependently abate the naloxone-induced flush”.

Take `Fc1ccc([C@@H]2CCNC[C@H]2COc2ccc3c(c2)OCO3)cc1` [paroxetine]: in experiment [1] (sc), the ED50 was 22.3 mg/kg.

With `COc1cccc(C(CN2CCN(c3cccc(Cl)c3)CC2)C2(O)CCCCC2)c1` (centres unmarked) [1-[2-(3-chlorophenyl)1-piperazinyl]-1-[3-methoxyphenyl)ethyl]cyclohexanol], the “hNET % Specific NE uptake” value on human hNET worked out at 64%. Further, the “hSERT % specific 5-HT uptake” value on hSERT stood at 67%.

In the case of `CN(C)C[C@H](c1ccc(O)cc1)C1(O)CCCCC1` (single isomer, unassigned) [S-ODV, S-enantiomer of ODV], the “ED50 value, abatement” value in experiment [1] (sc, 1 hour prior to naloxone) is 13.3+8 mg/kg.

On hSERT, `CNCCC(Oc1ccccc1OC)c1ccccc1` (centres unmarked) [nisoxetine, reference compound] yielded an EC50 of 275 nM.

Regarding `CCC1(c2cnc[nH]2)Cc2ccccc2C1` [atipamezole], the “changes in TST after naloxone, alone” value in experiment [1] (0.3 mg/kg sc, 55 minutes prior to naloxone) was “not significantly different from vehicle treated rats”.

With `COc1ccc(C(CN2CCN(C)CC2)C2(O)CCCCC2)cc1` (centres unmarked) [1-[1-(4-methoxyphenyl)-2-[4-methyl-1-piperazinyl)ethyl]cyclohexanol], on human hNET, the “hNET % Specific NE uptake” value amounted to 65%. Also, on hSERT, the “hSERT % specific 5-HT uptake” value is 79%.

In the case of `CN(C)CC(c1ccc(O)cc1)C1(O)CCCCC1` (centres unmarked) [DVS-233, O-desmethyl-venlafaxine], in experiment [2] (60 mg/kg sc), the “changes in TST over time” value is “significantly and transiently decreases TST during the active phase”.

Turning to `OC1(C(CN2CCN(Cc3ccccc3)CC2)c2cccc(C(F)(F)F)c2)CCCCC1` (centres unmarked) [1-[2-[4-(phenylmethyl)]-1-piperazinyl]-1-[3-(trifluoromethyl)phenyl]ethyl]cyclohexanol], the “hNET % Specific NE uptake” value at human hNET stood at 19%. For the same compound, the “hSERT % specific 5-HT uptake” value on hSERT stood at 94%.

Take `COc1cccc(C(CN2CCN(Cc3ccccc3)CC2)C2(O)CCCCC2)c1` (centres unmarked) [1-[1-(3-methoxyphenyl)-2-[4-phenylmethyl)-1-piperazinyl]ethyl]cyclohexanol]: the “hNET % Specific NE uptake” value on human hNET came to 43%. Moreover, the “hSERT % specific 5-HT uptake” value at hSERT turned out to be 49%.

On human hNET, `CN1CCN(CC(c2cccc(F)c2)C2(O)CCCCC2)CC1` (centres unmarked) [1-[1-(3-fluorophenyl)-2-(4-methyl-1-piperazinyl)ethyl]cyclohexanol] registered an EC50 of 240 nM. Further, on hSERT ([3H]5-HT uptake, JAR cells), the “hSERT EC50” value is given as “Inactive at 1 μm”.

Regarding `CN(C)C[C@@H](c1ccc(O)cc1)C1(O)CCCCC1` (single isomer, unassigned) [R-ODV, R-enantiomer of O-desmethylvenlafaxine], the “ED50 value, abatement” value in experiment [1] (sc, 1 hour prior to naloxone) is listed as 14.4+13 mg/kg.

As for `OC1(C(CN2CCN(c3cccc(Cl)c3)CC2)c2cccc(Cl)c2)CCCCC1` (centres unmarked) [1-[1-(3-chlorophenyl)-2-[4-(3-chlorophenyl)-1-piperazinyl]ethyl]cyclohexanol], the “hNET % Specific NE uptake” value on human hNET is 23%. On hSERT, the “hSERT % specific 5-HT uptake” value is recorded as 72%.

As for `CCOc1ccccc1OC(c1ccccc1)C1CNCCO1` (centres unmarked) [reboxetine], in experiment [1] (sc, 1 hour prior to naloxone, 15 minutes post-naloxone), the “effect on naloxone-induced flush at maximal flush (dose response)” value is “dose-dependently abates the naloxone-induced flush”. The “changes in TST over time, effect on naloxone-induced flush” value in experiment [1] (sc) was “dose-dependently abate the naloxone-induced flush”.

As for `CN(C)CC(c1cccc(C(F)(F)F)c1)C1(O)CCCCC1` (centres unmarked) [WY-867], in experiment [1] (1 hour prior to naloxone), the “effect on naloxone-induced flush at maximal flush” value is recorded as “abated the naloxone-induced flush”.
